Key:
Homo sapiens [1] = species: Homo sapiens; experiment: Selectivity ratio of Ki for human A1 receptor expressed in CHO cells to Ki for human A3 receptor expressed in CHO cells; assay type: cell-based
Adenosine receptor A3 = target: T1, Adenosine receptor A3 (Homo sapiens, UniProt P0DMS8); experiment: Displacement of [3H]-HEMADO from human A3 receptor expressed in CHO cells by radioligand competitive binding assay; assay type: cell-based
T1 sequence (P0DMS8 whole entry): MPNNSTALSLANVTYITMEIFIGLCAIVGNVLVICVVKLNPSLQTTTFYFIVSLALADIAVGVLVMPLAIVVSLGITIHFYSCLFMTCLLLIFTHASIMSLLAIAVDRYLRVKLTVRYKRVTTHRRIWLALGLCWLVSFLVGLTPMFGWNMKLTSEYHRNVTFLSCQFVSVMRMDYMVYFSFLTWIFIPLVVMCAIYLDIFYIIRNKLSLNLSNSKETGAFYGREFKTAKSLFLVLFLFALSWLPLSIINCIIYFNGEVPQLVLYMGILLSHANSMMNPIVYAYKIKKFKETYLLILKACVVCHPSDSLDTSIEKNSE

Adenosine receptor A2a = Adenosine receptor A2a (Homo sapiens, UniProt P29274); experiment: Displacement of [3H]-NECA from human A2A receptor expressed in CHO cells by radioligand competitive binding assay; assay type: cell-based
Sequence of Adenosine receptor A2a (P29274 whole entry): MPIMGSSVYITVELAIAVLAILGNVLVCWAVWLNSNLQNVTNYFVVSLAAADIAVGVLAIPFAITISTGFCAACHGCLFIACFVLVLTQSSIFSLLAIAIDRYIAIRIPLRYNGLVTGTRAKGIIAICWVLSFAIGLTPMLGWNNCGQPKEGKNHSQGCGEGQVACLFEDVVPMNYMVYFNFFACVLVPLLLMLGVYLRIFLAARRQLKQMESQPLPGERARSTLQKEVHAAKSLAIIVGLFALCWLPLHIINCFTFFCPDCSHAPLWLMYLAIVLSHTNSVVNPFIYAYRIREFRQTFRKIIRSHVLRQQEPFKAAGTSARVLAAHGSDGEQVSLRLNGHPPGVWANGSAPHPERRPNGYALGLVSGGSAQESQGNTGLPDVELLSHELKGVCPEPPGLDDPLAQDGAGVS

Adenosine receptor A1 = target: T2, Adenosine receptor A1 (Homo sapiens, UniProt P30542); experiment: Displacement of [3H]-CCPA binding from human A1 receptor expressed in CHO cells by radioligand competitive binding assay; assay type: cell-based
T2 sequence (P30542 whole entry): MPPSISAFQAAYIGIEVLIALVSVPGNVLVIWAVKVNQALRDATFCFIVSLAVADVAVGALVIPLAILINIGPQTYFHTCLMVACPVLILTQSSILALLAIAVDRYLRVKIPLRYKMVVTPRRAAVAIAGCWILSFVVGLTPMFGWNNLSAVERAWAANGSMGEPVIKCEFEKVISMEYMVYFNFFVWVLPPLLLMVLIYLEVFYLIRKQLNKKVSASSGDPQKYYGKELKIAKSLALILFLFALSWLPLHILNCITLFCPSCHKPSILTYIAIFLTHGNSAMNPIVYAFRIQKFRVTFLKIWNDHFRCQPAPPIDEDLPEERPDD

Homo sapiens [2] = species: Homo sapiens; experiment: Selectivity ratio of Ki for human A2A receptor expressed in CHO cells to Ki for human A3 receptor expressed in CHO cells; assay type: cell-based
Homo sapiens [3] = species: Homo sapiens; experiment: Selectivity ratio of Ki for human A1 receptor expressed in CHO cells to Ki for human A2A receptor expressed in CHO cells; assay type: cell-based
[4] = Inhibition of Influenza A virus H3N2 Neuraminidase
Human alphaherpesvirus 1 [5] = experiment: Antiviral activity against Herpes simplex virus 1 at 50 ug/10^5; assay type: functional
Human alphaherpesvirus 1 [6] = experiment: Antiviral activity against Herpes simplex virus 1 at 20 ug/10^5; assay type: functional
[7] = target: Cyclin-dependent kinase 2/cyclin E1 (Homo sapiens, UniProt P24941); experiment: Inhibition of CDK2/cyclin E (unknown origin) expressed in baculovirus infected Sf9 insect cells using GST-Rb as substrate in presence of [33P] ATP incubated for 30 mins
Homo sapiens [8] = species: Homo sapiens; experiment: Selectivity ratio of IC50 for CDK2/cyclin E (unknown origin) expressed in baculovirus infected Sf9 insect cells to IC50 for CDK4/cyclin D1 (unknown origin) expressed in baculovirus infected Sf9 insect cells
[9] = target: Cyclin-dependent kinase 4/cyclin D1 (Homo sapiens, UniProt P11802); experiment: Inhibition of CDK4/cyclin D1 (unknown origin) expressed in baculovirus infected Sf9 insect cells using GST-Rb as substrate in presence of [33P] ATP incubated for 30 mins
Sequence of Cyclin-dependent kinase 4/cyclin D1 (P11802 whole entry): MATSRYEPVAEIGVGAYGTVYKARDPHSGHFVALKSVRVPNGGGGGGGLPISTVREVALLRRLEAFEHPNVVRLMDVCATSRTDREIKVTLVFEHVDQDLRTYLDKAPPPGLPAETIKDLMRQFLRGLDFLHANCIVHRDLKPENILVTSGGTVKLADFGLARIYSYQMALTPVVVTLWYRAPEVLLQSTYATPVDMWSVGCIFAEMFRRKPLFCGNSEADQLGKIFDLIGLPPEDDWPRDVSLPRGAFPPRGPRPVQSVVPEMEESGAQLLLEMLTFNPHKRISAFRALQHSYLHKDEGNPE
Sequence of Cyclin-dependent kinase 4/cyclin D1 (P24385 whole entry, further chain): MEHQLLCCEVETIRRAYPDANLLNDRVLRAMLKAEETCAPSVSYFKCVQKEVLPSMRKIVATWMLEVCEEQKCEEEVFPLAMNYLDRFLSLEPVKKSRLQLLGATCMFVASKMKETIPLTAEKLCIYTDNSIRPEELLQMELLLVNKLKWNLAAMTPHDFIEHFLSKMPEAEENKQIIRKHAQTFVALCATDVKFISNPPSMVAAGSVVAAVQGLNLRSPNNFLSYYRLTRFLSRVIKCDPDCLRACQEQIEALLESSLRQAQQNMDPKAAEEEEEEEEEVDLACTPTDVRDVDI

MCF7 = experiment: Antiproliferative activity against human MCF7 after 48 hrs by MTT assay; assay type: functional; details: MCF7, 48 h
A549 = experiment: Antiproliferative activity against human A549 after 48 hrs by MTT assay; assay type: functional; details: A549, 48 h
BT-549 = experiment: Antiproliferative activity against human BT549 after 48 hrs by MTT assay; assay type: functional; details: BT-549, 48 h
HT-29 = experiment: Antiproliferative activity against human HT-29 after 48 hrs by MTT assay; assay type: functional; details: HT-29, 48 h
HCT-116 [10] = experiment: Antiproliferative activity against human HCT116 after 48 hrs by MTT assay; assay type: functional; details: HCT-116, 48 h
HCT-15 = experiment: Antiproliferative activity against human HCT15 after 48 hrs by MTT assay; assay type: functional; details: HCT-15, 48 h
MDA-MB-453 = experiment: Antiproliferative activity against human MDA-MB-453 after 48 hrs by MTT assay; assay type: functional; details: MDA-MB-453, 48 h
DU-145 = experiment: Antiproliferative activity against human DU145 after 48 hrs by MTT assay; assay type: functional; details: DU-145, 48 h
Rattus norvegicus [11] = experiment: Antiinflammatory activity in gamma irradiated rat assessed as reduction in COX-2 level in liver tissue homogenates at 150 mg/kg, ip administered once daily for 7 consecutive days by ELISA (reference value: 89.50 +/- 2.617 ng/ml); assay type: functional
Rattus norvegicus [12] = experiment: Antiinflammatory activity in gamma irradiated rat assessed as reduction in serum TNFalpha level at 150 mg/kg, ip administered once daily for 7 consecutive days by ELISA (reference value: 105.07 +/- 3.925 pg/ml); assay type: functional
Rattus norvegicus [13] = experiment: Antiinflammatory activity in gamma irradiated rat assessed as reduction in serum IL-6 level at 150 mg/kg, ip administered once daily for 7 consecutive days by ELISA (reference value: 103.87 +/- 3.273 pg/ml); assay type: functional
Rattus norvegicus [14] = experiment: Antiinflammatory activity in gamma irradiated rat assessed as reduction in NFkappaB level in liver tissue homogenates at 150 mg/kg, ip administered once daily for 7 consecutive days by ELISA (reference value: 258.33 +/- 4.216 pg/ml); assay type: functional
[15] = Ulcerogenic activity in Sprague-Dawley rat assessed as ulcer index at 20 mg/kg, ip pretreated followed by pylorus ligation and measured at 4 hrs post ligation; assay type: toxicity, organism-based; details: in vivo
Mus musculus = experiment: Analgesic activity in Swiss albino mouse assessed as protection against acetic acid-induced writhing at 15 mg/kg, po pretreated for 30 mins followed by acetic acid challenge and measured after 20 mins relative to control; assay type: functional
Rattus norvegicus [16] = experiment: Antiinflammatory activity in Sprague-Dawley rat assessed as inhibition of carrageenan-induced edema at 15 mg/kg, po pretreated for 1 hr followed by carrageenan challenge and measured after 4 hrs by mercury plethysmometer relative to control; assay type: functional
Hepatovirus A = experiment: Antiviral activity against Hepatitis A virus infected in HepG2 cells assessed as virus inhibition at 40 ug/L incubated overnight with virus followed by inoculation and measured after 1 hr by crystal violet staining based plaque reduction assay; assay type: functional
HCT-116 [17] = experiment: Antiproliferative activity against human HCT116 after 18 hrs by MTT assay; assay type: functional, cell-based; details: HCT-116, 18 h

## Cc1sc2nc(NC(=O)c3ccccc3)[nH]c(=O)c2c1C
Homo sapiens [1]
  Ratio Ki: > 240
Adenosine receptor A3
  Ki: 0.124 µM
Adenosine receptor A2a
  Ki: 0.65 µM
Adenosine receptor A1
  Ki: > 30 µM
Homo sapiens [2]
  Ratio Ki: 5.24
Homo sapiens [3]
  Ratio Ki: > 46

## O=C1CCC(=O)N1Nc1nc(-c2c[nH]c3ccccc23)nc2sc3c(c12)CCCC3
[4]
  IC50: 0.021 µM

## OCCSc1ncnc2sc3c(c12)-c1ccccc1CC3
Human alphaherpesvirus 1 [5]
  Activity: 30%
Human alphaherpesvirus 1 [6]
  Activity: 5%

## CNCc1csc(/C=N/Nc2ncnc3sc(C(C)C(C)C)cc23)n1 (centres undefined)
[7]
  IC50: 0.88 µM
Homo sapiens [8]
  Ratio IC50: 40
[9]
  IC50: 0.022 µM

## O=C(Nc1cccc(Nc2ncnc3sccc23)c1)c1ccc(F)cc1
MCF7
  GI50: 1.6 µM
A549
  GI50: 4.3 µM
BT-549
  GI50: 1.3 µM
HT-29
  GI50: > 10 µM
HCT-116 [10]
  GI50: 10.2 µM
HCT-15
  GI50: > 10 µM
MDA-MB-453
  GI50: > 10 µM
DU-145
  GI50: 9.2 µM

## CCOC(=O)c1sc2ncnc(Cl)c2c1C
Rattus norvegicus [11]
  COX-2 level in liver homogenate: 36.33 ng/mL
Rattus norvegicus [12]
  Serum TNFalpha level: 41.53 pg/mL
Rattus norvegicus [13]
  Serum IL-6 level: 50.1 pg/mL
Rattus norvegicus [14]
  NFkappaB level in liver tissue: 138.17 pg/mL

## Nc1nc2c(ncn2COCCO)c(=O)[nH]1 [ACYCLOVIR]
Human alphaherpesvirus 1 [6]
  Activity: 100%

## Cc1nc(SCCO)c2c3c(sc2n1)CCc1ccccc1-3
Human alphaherpesvirus 1 [5]
  Activity: 75%
Human alphaherpesvirus 1 [6]
  Activity: 40%

## CCOC(=O)c1sc2ncnc(N[C@@H](CC(=O)O)C(=O)O)c2c1C
Rattus norvegicus [11]
  COX-2 level in liver homogenate: 40.5 ng/mL
Rattus norvegicus [12]
  Serum TNFalpha level: 51.35 pg/mL
Rattus norvegicus [13]
  Serum IL-6 level: 59.85 pg/mL
Rattus norvegicus [14]
  NFkappaB level in liver tissue: 88.17 pg/mL

## CC(=O)Cc1c(C(C)C)sc2nc(C)[nH]c(=O)c12
[15]
  UI: 1.1
Mus musculus
  Activity: 59%
Rattus norvegicus [16]
  inhibition in vivo at 15 mg/kg: 74.5%

## Cc1ccc([N+](=O)[O-])c(C(=O)Nc2cccc(Nc3ncnc4sccc34)c2)c1
MCF7
  GI50: 3.3 µM
A549
  GI50: 8.6 µM
BT-549
  GI50: > 10 µM
HT-29
  GI50: > 10 µM
HCT-116 [10]
  GI50: 3.5 µM
HCT-15
  GI50: 3.6 µM
MDA-MB-453
  GI50: 8.2 µM
DU-145
  GI50: 7.5 µM

## CCC(C)c1cc2c(N/N=C/c3nc(CNC)cs3)ncnc2s1 (centres undefined)
[7]
  IC50: 0.44 µM
Homo sapiens [8]
  Ratio IC50: 15.2
[9]
  IC50: 0.029 µM

## CC(=O)Nc1nc2sc3c(c2c(=O)[nH]1)CCC3
Homo sapiens [1]
  Ratio Ki: > 74
Adenosine receptor A3
  Ki: 1.35 µM
Adenosine receptor A2a
  Ki: > 30 µM
Adenosine receptor A1
  Ki: > 100 µM
Homo sapiens [2]
  Ratio Ki: > 22
Homo sapiens [3]
  Ratio Ki: > 3.3

## CC(=O)Nc1nc2sc(C)c(C)c2c(=O)[nH]1
Homo sapiens [1]
  Ratio Ki: > 57
Adenosine receptor A3
  Ki: 0.524 µM
Adenosine receptor A2a
  Ki: > 30 µM
Adenosine receptor A1
  Ki: > 30 µM
Homo sapiens [2]
  Ratio Ki: > 57
Homo sapiens [3]
  Ratio Ki: > 1

## Nc1nc(-n2ccnc2)c2c3c(sc2n1)CCCC3
Homo sapiens [1]
  Ratio Ki: > 0.35
Adenosine receptor A3
  Ki: > 30 µM
Adenosine receptor A2a
  Ki: 4.06 µM
Adenosine receptor A1
  Ki: 10.4 µM
Homo sapiens [2]
  Ratio Ki: > 0.14
Homo sapiens [3]
  Ratio Ki: 2.6

## CCOC(=O)c1sc2ncnc(NCC(=O)O)c2c1C
Rattus norvegicus [11]
  COX-2 level in liver homogenate: 31.17 ng/mL
Rattus norvegicus [12]
  Serum TNFalpha level: 48.32 pg/mL
Rattus norvegicus [13]
  Serum IL-6 level: 46.53 pg/mL
Rattus norvegicus [14]
  NFkappaB level in liver tissue: 89.83 pg/mL

## CC(=O)OC[C@H]1O[C@@H](Sc2nc3sc4c(c3c(=O)n2Cc2ccccc2)CCCCC4)[C@H](OC(C)=O)[C@@H](OC(C)=O)[C@@H]1OC(C)=O
Hepatovirus A
  inhibition (INH): 55%

## CCc1cc2c(OCc3cc(-c4ccc(OC)cc4)no3)ncnc2s1
HCT-116 [17]
  IC50: 112 µM
